Patent publication EP0745595A1, “3-(3-Aryloxyphenyl)-1-(substituted methyl)-s-triazine-2,4,6-oxo or thiotrione herbicidal agents” (American Cyanamid Company, priority 1995, dated 1996)

Key:
Format in all cases: in vivo
CHENOPODIUM ALBUM, L. [1] = test: Preemergence herbicidal evaluation, CHEAL (Lambsquarters, Common); details: four to five weeks after treatment
In short: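 Injury scored visually (0–9; stand, vigor, malformation, size, chlorosis) versus untreated control, four to five weeks post-treatment. Application: aqueous acetone spray onto freshly planted soil cups, equivalent to about 0.125 to 0.50 kg/ha, plants then kept under standard greenhouse care.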

[2] = tested on: AMBROSIA ARTEMISIIFOLIA, L.; test: Postemergence herbicidal evaluation, AMBEL (Ragweed, Common); details: for AMBEL, herbicide rating (0-9): rated four to five weeks after treatment, averaged
In short: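 Postemergence herbicidal activity on AMBEL (common ragweed) was assessed on two-week-old seedlings grown in jiffy flats. Treatment solutions of 50/50 acetone/water with 0.5% TWEEN®20 surfactant were sprayed at 40 psi. After four to five weeks in the greenhouse, plants were scored 0-9 against a control for stand, vigor, malformation, size, chlorosis and overall appearance, with multiple tests averaged.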

CHENOPODIUM ALBUM, L. [3] = test: Postemergence herbicidal evaluation, CHEAL (Lambsquarters, Common); details: for CHEAL, herbicide rating (0-9): rated four to five weeks after treatment, averaged
In short: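 Postemergence herbicidal activity on Chenopodium album was tested by spraying two-week-old seedlings grown in jiffy flats with compound in acetone/water (50/50) plus 0.5% TWEEN®20, using a 40 psi nozzle. Four to five weeks after treatment, stand, vigor, malformation, size, chlorosis and overall appearance were scored 0-9 relative to controls, with repeat tests averaged.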

[4] = tested on: ORYZA SATIVA, L. TEBONNET; test: Rice tolerance to post-transplant applications under flooded paddy conditions, ORYSAT (Rice, Tebonnet); details: for ORYSAT herbicidal rating (rice tolerance): post-transplant rice, rated three to four weeks after treatment; for ORYSAT: post-transplanted rice;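 for ORYSAT herbicidal rating (rice tolerance): applied to flooded soil surface three days after transplanting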
In short: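 Greenhouse pots of silt loam, each with two transplanted ten-day-old seedlings, are held under 1.5 to 3 cm of standing water. Three days later the compound is applied to the flooded surface at about 0.5, 0.25, 0.125 or 0.063 kg/ha. Damage is scored visually 0-9 after 3-4 weeks.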

[5] = tested on: ABUTILON THEOPHRASTI, MEDIC.; test: Postemergence herbicidal evaluation, ABUTH (Velvetleaf); details: for ABUTH, herbicide rating (0-9): rated four to five weeks after treatment, averaged
In short: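 This postemergence herbicide test used two-week-old velvetleaf seedlings grown in jiffy flats. Each compound was sprayed at 40 psi as a dispersion in 50/50 acetone/water with 0.5% TWEEN®20 surfactant. Plants then received routine greenhouse care. After four to five weeks, injury was scored visually on a 0-9 scale against a control, and replicate tests were averaged.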

IPOMOEA SPP. = test: Postemergence herbicidal evaluation, IPOSS (Morningglory spp.); details: for IPOSS, herbicide rating (0-9): rated four to five weeks after treatment, averaged
In short: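 In this greenhouse postemergence herbicide test on Ipomoea spp. (morningglory), compounds in 50/50 acetone/water with 0.5% TWEEN®20 were sprayed at 40 psi onto seedlings about two weeks old grown in jiffy flats. After four to five weeks, injury was scored on a 0-9 scale covering stand, vigor, malformation, size, chlorosis and overall appearance versus control, with repeat tests averaged.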

[6] = tested on: TRITICUM AESTIVUM, CV. APOLLO; test: Postemergence herbicidal evaluation, TRZAWO (Wheat, Winter, CV. APOLLO)
Description: In the tests, seedling plants are grown in jiffy flats for about two weeks. The test compounds are dispersed in 50/50 acetone/water mixtures containing 0.5% TWEEN®20, a polyoxyethylene sorbitan monolaurate surfactant of Atlas Chemical Industries, […] through a spray nozzle operating at 40 psi for a predetermined time. After spraying, the plants are placed on greenhouse benches and are cared for in the usual manner, commensurate with conventional greenhouse practices. From four to five weeks after treatment, the seedling plants are examined and rated according to the rating system set forth below. Where more than one test is involved for a given compound, the data are averaged.
(§1) Plant species employed in these evaluations are reported by header abbreviation, common name and scientific name.
(§2) Results of herbicide evaluation are expressed on a rating scale (0-9). The scale is based upon a visual observation of plant stand, vigor, malformation, size, chlorosis and overall plant appearance as compared with a control.

ZEA MAYS L. = test: Postemergence herbicidal evaluation, ZEAMX (Corn, Field)
Description: In the tests, seedling plants are grown in jiffy flats for about two weeks. The test compounds are dispersed in 50/50 acetone/water mixtures containing 0.5% TWEEN®20, a polyoxyethylene sorbitan monolaurate surfactant of Atlas Chemical Industries, […] to the plants through a spray nozzle operating at 40 psi for a predetermined time. After spraying, the plants are placed on greenhouse benches and are cared for in the usual manner, commensurate with conventional greenhouse practices. From four to five weeks after treatment, the seedling plants are examined and rated according to the rating system set forth below. Where more than one test is involved for a given compound, the data are averaged.
as §1, §2

[7] = tested on: SETARIA VIRIDIS, (L) BEAU; test: Postemergence herbicidal evaluation, SETVI (Foxtail, Green); design: key to SETVI rating / Herbicidal effect rating, SETVI / SETVI: 0-9 visual rating scale vs untreated control
In short: (§3)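 Postemergence foliar spray at approximately 0.125–0.500 kg/ha onto two-week seedlings; greenhouse hold, then 0–9 visual injury rating after 4–5 weeks.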

[8] = tested on: ECHINOCHLOA CRUS-GALLI, (L) BEAU; test: Postemergence herbicidal evaluation, ECHCG (Barnyardgrass); design: key to ECHCG rating / Herbicidal effect rating, ECHCG / ECHCG: 0-9 visual rating scale vs untreated control
In short: as §3

CASSIA OBTUSIFOLIA, L. = test: Postemergence herbicidal evaluation, CASOB (Sicklepod); design: key to CASOB rating / Herbicidal effect rating, CASOB / CASOB: 0-9 visual rating scale vs untreated control
In short: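 Spray: acetone/water 50/50 + 0.5% TWEEN 20; rate ~0.125–0.500 kg/ha; nozzle 40 psi; ~2-wk seedlings. Read: visual 0–9 rating at 4–5 wk post-treatment vs control; replicate tests averaged.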

With COC(=O)Cn1c(=O)[nH]c(=O)n(-c2cc(Oc3ccc(C(F)(F)F)cc3Cl)ccc2[N+](=O)[O-])c1=O [Compound 8, Methyl 3-{5-[(2-chloro-α,α,α-trifluoro-p-tolyl)oxy]-2-nitrophenyl}tetrahydro-2,4,6-trioxo-s-triazine-1(2H)-acetate] as the molecule, how does the CHEAL rating (CHENOPODIUM ALBUM, L. [1]; Rate 0.125 kg/ha) read?
The CHEAL rating was 9.0.

And the CHEAL rating (CHENOPODIUM ALBUM, L. [1]; Rate 0.250 kg/ha)?
Its CHEAL rating is 9.0.

And the CHEAL rating (CHENOPODIUM ALBUM, L. [1]; Rate 0.500 kg/ha)?
Its CHEAL rating is 9.0.

What about the “AMBEL, herbicide rating (0-9)” value ([2]; Rate 0.125 kg/ha) of the same molecule?
Its value is 9.0.

What about the “AMBEL, herbicide rating (0-9)” value ([2]; Rate 0.250 kg/ha) of the same molecule?
The value was 9.0.

And the “AMBEL, herbicide rating (0-9)” value ([2]; Rate 0.500 kg/ha)?
The value was 9.0.

What about the “CHEAL, herbicide rating (0-9)” value (CHENOPODIUM ALBUM, L. [3]; Rate 0.125 kg/ha) of the same molecule?
Its value is 9.0.

And the “CHEAL, herbicide rating (0-9)” value (CHENOPODIUM ALBUM, L. [3]; Rate 0.250 kg/ha)?
Its value is 9.0.

And the “CHEAL, herbicide rating (0-9)” value (CHENOPODIUM ALBUM, L. [3]; Rate 0.500 kg/ha)?
Its value is 9.0.

And the “ORYSAT herbicidal rating (rice tolerance)” value (from here on “ORYSAT herbicidal rating”) ([4]; Rate 0.063 kg/ha)?
Its value is 0.0.

And the “ORYSAT herbicidal rating” value ([4]; Rate 0.125 kg/ha)?
Its value is 0.0.

And the “ORYSAT herbicidal rating” value ([4]; Rate 0.250 kg/ha)?
Its value is 1.0.

And the “ORYSAT herbicidal rating” value ([4]; Rate 0.500 kg/ha)?
The value was 2.0.

What about the “ABUTH, herbicide rating (0-9)” value ([5]; Rate 0.125 kg/ha) of the same molecule?
Its value is 9.0.

What about the “ABUTH, herbicide rating (0-9)” value ([5]; Rate 0.250 kg/ha) of the same molecule?
Its value is 9.0.

What about the “ABUTH, herbicide rating (0-9)” value ([5]; Rate 0.500 kg/ha) of the same molecule?
Its value is 9.0.

And the “IPOSS, herbicide rating (0-9)” value (IPOMOEA SPP.; Rate 0.125 kg/ha)?
The value was 9.0.

What about the “IPOSS, herbicide rating (0-9)” value (IPOMOEA SPP.; Rate 0.250 kg/ha) of the same molecule?
The value was 9.0.

What about the “IPOSS, herbicide rating (0-9)” value (IPOMOEA SPP.; Rate 0.500 kg/ha) of the same molecule?
Its value is 9.0.

What does the source list for Cn1c(=O)[nH]c(=O)n(-c2cc(Oc3c(F)cc(C(F)(F)F)cc3Cl)ccc2F)c1=O [C, reference compound]?
Herbicidal effect rating, TRZAWO ([6]; 0.031 kg/ha): 3.5; Herbicidal effect rating, TRZAWO ([6]; 0.063 kg/ha): 4.0; Herbicidal effect rating, TRZAWO ([6]; 0.125 kg/ha): 4.5; Herbicidal effect rating, TRZAWO ([6]; 0.250 kg/ha): 4.5; Herbicidal effect rating, ZEAMX (ZEA MAYS L.; 0.031 kg/ha): 3.0; Herbicidal effect rating, ZEAMX (ZEA MAYS L.; 0.063 kg/ha): 3.5; Herbicidal effect rating, ZEAMX (ZEA MAYS L.; 0.125 kg/ha): 4.0; Herbicidal effect rating, ZEAMX (ZEA MAYS L.; 0.250 kg/ha): 4.5; Herbicidal effect rating, AMBEL ([2]; 0.031 kg/ha): 1.0; Herbicidal effect rating, AMBEL ([2]; 0.063 kg/ha): 3.0; Herbicidal effect rating, AMBEL ([2]; 0.125 kg/ha): 4.0; Herbicidal effect rating, AMBEL ([2]; 0.250 kg/ha): 6.0; Herbicidal effect rating, CHEAL (CHENOPODIUM ALBUM, L. [3]; 0.031 kg/ha): 3.0; Herbicidal effect rating, CHEAL (CHENOPODIUM ALBUM, L. [3]; 0.063 kg/ha): 4.0; Herbicidal effect rating, CHEAL (CHENOPODIUM ALBUM, L. [3]; 0.125 kg/ha): 7.0; Herbicidal effect rating, CHEAL (CHENOPODIUM ALBUM, L. [3]; 0.250 kg/ha): 7.0; Herbicidal effect rating, SETVI ([7]; 0.031 kg/ha): 0.0; Herbicidal effect rating, SETVI ([7]; 0.063 kg/ha): 0.0; Herbicidal effect rating, SETVI ([7]; 0.125 kg/ha): 0.0; Herbicidal effect rating, SETVI ([7]; 0.250 kg/ha): 1.0; Herbicidal effect rating, ECHCG ([8]; 0.031 kg/ha): 0.0; Herbicidal effect rating, ECHCG ([8]; 0.063 kg/ha): 0.0; Herbicidal effect rating, ECHCG ([8]; 0.125 kg/ha): 0.0; Herbicidal effect rating, ECHCG ([8]; 0.250 kg/ha): 2.0; ORYSAT ([4]; Rate 0.031 kg/ha): 1.0; ORYSAT ([4]; Rate 0.063 kg/ha): 1.0; ORYSAT ([4]; Rate 0.125 kg/ha): 3.0; ORYSAT ([4]; Rate 0.250 kg/ha): 5.0; Herbicidal effect rating, CASOB (CASSIA OBTUSIFOLIA, L.; 0.031 kg/ha): 2.0; Herbicidal effect rating, CASOB (CASSIA OBTUSIFOLIA, L.; 0.063 kg/ha): 4.0; Herbicidal effect rating, CASOB (CASSIA OBTUSIFOLIA, L.; 0.125 kg/ha): 4.0; Herbicidal effect rating, CASOB (CASSIA OBTUSIFOLIA, L.; 0.250 kg/ha): 6.0; Herbicidal effect rating, ABUTH ([5]; 0.031 kg/ha): 2.0; Herbicidal effect rating, ABUTH ([5]; 0.063 kg/ha): 4.0; Herbicidal effect rating, ABUTH ([5]; 0.125 kg/ha): 7.0; Herbicidal effect rating, ABUTH ([5]; 0.250 kg/ha): 7.0; Herbicidal effect rating, IPOSS (IPOMOEA SPP.; 0.031 kg/ha): 4.0; Herbicidal effect rating, IPOSS (IPOMOEA SPP.; 0.063 kg/ha): 5.0; Herbicidal effect rating, IPOSS (IPOMOEA SPP.; 0.125 kg/ha): 6.0; Herbicidal effect rating, IPOSS (IPOMOEA SPP.; 0.250 kg/ha): 9.0
